Measured values taken from ChEMBL document CHEMBL3525948, “Quantitative prediction of CYP2B6 induction by estradiol during pregnancy: potential explanation for increased methadone clearance during pregnancy” (Drug Metab Dispos, 2013).

Assays:
Hepatocyte = test: Induction of CYP2B6 mRNA expression in human donor hepatocytes after 48 hrs by real-time PCR method; assay type: ADME, cell-based
CYP2B6 = biological target: T1, CYP2B6 (Homo sapiens, UniProt P20813); test: Induction of CYP2B6 activity in human donor hepatocytes assessed as hydroxybupropion formation after 48 hrs by LC/MS method; assay type: ADME, cell-based, Hepatocyte; details: probe bupropion (hydroxybupropion formation measured)
T1 sequence (P20813 whole entry): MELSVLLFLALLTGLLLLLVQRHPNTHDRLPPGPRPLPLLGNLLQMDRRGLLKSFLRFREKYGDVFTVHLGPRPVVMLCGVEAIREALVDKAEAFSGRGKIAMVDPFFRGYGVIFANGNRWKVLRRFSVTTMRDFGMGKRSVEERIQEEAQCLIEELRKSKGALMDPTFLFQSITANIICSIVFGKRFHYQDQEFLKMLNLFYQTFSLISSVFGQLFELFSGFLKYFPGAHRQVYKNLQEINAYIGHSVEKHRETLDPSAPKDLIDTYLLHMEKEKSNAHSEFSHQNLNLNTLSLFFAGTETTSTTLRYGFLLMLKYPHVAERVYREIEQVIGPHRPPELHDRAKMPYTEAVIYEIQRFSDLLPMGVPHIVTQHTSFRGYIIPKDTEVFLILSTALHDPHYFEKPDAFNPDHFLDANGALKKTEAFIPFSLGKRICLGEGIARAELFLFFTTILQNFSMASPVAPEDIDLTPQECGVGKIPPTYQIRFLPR

EC50 at 48 h (CYP2B6)	Compound	EC50 (Hepatocyte)
1300 nM	CO[C@H]1/C=C/O[C@@]2(C)Oc3c(C)c(O)c4c(O)c(c(/C=N/N5CCN(C)CC5)c(O)c4c3C2=O)NC(=O)/C(C)=C\C=C\[C@H](C)[C@H](O)[C@@H](C)[C@@H](O)[C@@H](C)[C@H](OC(C)=O)[C@@H]1C [RIFAMPIN]	980 nM
145000 nM	NC(=O)N1c2ccccc2C=Cc2ccccc21 [CARBAMAZEPINE]	26000 nM

Compound	EC50 at 48 h (CYP2B6)	EC50 (Hepatocyte)
C[C@]12CC[C@@H]3c4ccc(O)cc4CC[C@H]3[C@@H]1CC[C@@H]2O [ESTRADIOL]	4100 nM	1900 nM
